Assay results taken from patent US10981926B2 (Janssen Pharmaceutica NV, priority 2016, dated 2021).
Where two headings read alike, the source gives them in different places.

Legend:
[1] = biological target: F876L mutant Androgen Receptor (AR-F876L) (Homo sapiens (Human), UniProt P10275, F877L); experiment: LNCaP-AR-F876L AG reporter assay (agonist mode); format: cell-based
[2] = tested on: LNCaP F876L; experiment: LNCaP Proliferation Assay (LNCaP F876L); format: cell-based; conditions: Homo sapiens, 96 h, 4 days, CellTiter-Glo, normalized to 0.1 nM R1881 stimulation
Experimental: LNCaP cells were expanded in RPMI 10% FBS in T150 flasks. The cells were dislodged with 0.25% Trypsin, washed in complete media, centrifuged (300 g, 3 min), and the supernatant aspirated. The cells were resuspended in RPMI phenol-red free media with 1% charcoal-stripped serum (CSS) and counted using a ViCELL (Beckman-Coulter). 7500 cells were added to each well of a white optical bottom 384-well plate and incubated for 2 days at 37° C. 5% CO2. Compound dilutions were prepared in RPMI CSS using 50 mM stock solutions and added to the cells either alone (agonist mode) or in combination with 0.1 nM R1881 (antagonist mode). The plates were incubated for 4 days, followed by addition of CellTiter-Glo Luminescent Cell Viability kit reagent (Promega). The plates were placed on a shaker at 3000 rpm for 10 minutes and then read on an EnVision plate reader (Perkin Elmer) using Luminescence assay default settings. The data was analyzed, normalized to 0.1 nM R1881 stimulation, and plotted in GraphPad Prism.

[3] = biological target: AR H874Y (Homo sapiens (Human), UniProt P10275, H875Y); experiment: Luciferase Transcriptional Reporter Assay, AR H874Y (HepG2); format: cell-based
Experimental: HepG2 cells were maintained in EMEM supplemented with 10% FBS. One day before transfection, the media was changed to EMEM with 10% CSS. T-150 flasks were transiently transfected using 120 μL Lipofectamine 2000 (Life Technologies), 30 μg mutant cDNA (expression vector)—mutant cDNA tested were L701H, T877A, W741C and H874Y—and 40 μg 4×ARE-Luciferase (reporter vector) in OptiMEM and the flasks were incubated overnight. Cells were then trypsinized, counted and resuspended at 500,000 cells/mL. For agonist mode, the compounds of Formula (I) were serially diluted and 50 μL of the compound was added per well. 50 μL of the cells were added to each well and incubated for 48 hours. For antagonist mode, a final concentration of 90 pM R1881 was added to the diluted compounds and incubated for 48 hours. The plates were then assayed using SteadyGlo and read on the Envision. Percent Stimulation and Inhibition were determined and analyzed using GraphPad Prism.
F876L agonism was evident at 3 and 10 μM (5%) but zero at 30 μM. The antagonistic (IC50) and agonistic (EC50) values for each of the AR cDNA used in the reporter assays are summarized. All values are calculated relative to the activity of R1881 induced androgen receptor activity (n≥3). Also indicated are the maximal inhibition and extent of induction of androgen dependent signaling (%).

[4] = biological target: F876L-VP16 (Homo sapiens (Human), UniProt P10275, F877L); experiment: AR-VP16 DNA Binding Assay (VP16 F876L); format: cell-based; conditions: HepG2, antagonist mode, 1 nM R1881, 48 hours
Experimental: HepG2 cells were maintained in EMEM supplemented with 10% FBS. One day before transfection, the media was changed to EMEM with 10% CSS. T-150 flasks were transiently transfected using 120 μL Lipofectamine 2000 (Life Technologies), 24.5 μg AR-VP16 or F876L-VP16 (expression vector) and 49 μg 4×ARE-Luciferase (reporter vector) in OptiMEM and the flasks were incubated overnight. Cells were then trypsinized, counted and resuspended at 500,000 cells/mL. For agonist mode, the compounds were serially diluted and 50 μL of the compound was added per well. 50 μL of the cells were added to each well and incubated for 48 hours. For antagonist mode, a final concentration of 90 pM (VP16 AR) or 1 nM (VP16 F876L) R1881 was added to the plate and incubated for 48 hours. The plates were then assayed using SteadyGlo and read on the Envision. Percent Stimulation and Inhibition were determined and analyzed using GraphPad Prism.

[5] = tested on: 22RV1 cells; experiment: 22RV1 Proliferation Assay; format: cell-based; conditions: Homo sapiens, 120 h
Experimental: 22RV1 were obtained from ATCC and cultured in RPMI 1640 supplemented with 10% FBS. Cells were seeded at a density of 4,500 cells/well into Greiner 384-well, white, optical-bottom plates in RPMI 1640 phenol red-free medium with 1% charcoal stripped FBS and incubated for 2 days at 37° C. The cells were treated with a compound of Formula (I) in 12-point dose-response both in the presence and absence of 0.1 nM R1881 for 5 days. To determine cell viability, CellTiter-Glo reagent (Promega) was added to each well according to the manufacturer's instructions, placed on a shaker at 300 rpm for 10 min, and luminescence recorded using an EnVision plate reader (Perkin Elmer). The data was exported to GraphPad Prism and analyzed using the Four Parameter equation to obtain IC50 values for each compound. Each compound was tested in at least three independent experiments.

[6] = tested on: androgen dependent signaling (androgen sensitive organs); experiment: Hershberger Assay; format: in vivo, rat
Experimental: The effect of AR antagonists on androgen dependent signaling in vivo was assessed using the Hershberger assay. In this assay, peripubertal castrated male Sprague-Dawley rats were administered AR antagonists described herein in the presence of testosterone (0.4 mg/kg testosterone propionate) and the weights of androgen dependent organs measured. Dosing was continued for 10 days and measurements taken 24 h after the last dose. The extent of antagonism of AR and consequent inhibition of organ growth was evaluated by comparison to the castration control. Compounds of Formula (I) were dosed orally QD and an endpoint assessment made by change in weight of 5 androgen sensitive organs (ASO): Paired Cowper's Glands (CG), Seminal Vesicles with Fluids and Coagulating Glands (SVCG), Glans Penis (GP), Ventral Prostate (VP) and Levator Ani-Bulbocavernosus Complex (LABC)). According to assay guidelines, statistically significant suppression of ASO is required in 2 of 5 organs for a compound to be classified as an anti-androgen (analysis was performed by t-test/Mann-Whitney).
Unless otherwise stated, compounds defined herein were administered at 30 mg/kg and flutamide (FT), positive control, at 3 mg/kg. All compounds were co-administered with testosterone propionate (TP, 0.4 mg/kg) which was also administered alone, untreated control, (castrated only rats served as the control for complete androgen blockade). A statistically significant change in ASO achieved in at least 2 of 5 organs was indicative of an active compound.

[7] = 30 mg/kg orally QD, 10 days, with TP 0.4 mg/kg, castrated rats, mean ± SD (n=6)

Chain of AR H874Y (P10275 whole entry H875Y): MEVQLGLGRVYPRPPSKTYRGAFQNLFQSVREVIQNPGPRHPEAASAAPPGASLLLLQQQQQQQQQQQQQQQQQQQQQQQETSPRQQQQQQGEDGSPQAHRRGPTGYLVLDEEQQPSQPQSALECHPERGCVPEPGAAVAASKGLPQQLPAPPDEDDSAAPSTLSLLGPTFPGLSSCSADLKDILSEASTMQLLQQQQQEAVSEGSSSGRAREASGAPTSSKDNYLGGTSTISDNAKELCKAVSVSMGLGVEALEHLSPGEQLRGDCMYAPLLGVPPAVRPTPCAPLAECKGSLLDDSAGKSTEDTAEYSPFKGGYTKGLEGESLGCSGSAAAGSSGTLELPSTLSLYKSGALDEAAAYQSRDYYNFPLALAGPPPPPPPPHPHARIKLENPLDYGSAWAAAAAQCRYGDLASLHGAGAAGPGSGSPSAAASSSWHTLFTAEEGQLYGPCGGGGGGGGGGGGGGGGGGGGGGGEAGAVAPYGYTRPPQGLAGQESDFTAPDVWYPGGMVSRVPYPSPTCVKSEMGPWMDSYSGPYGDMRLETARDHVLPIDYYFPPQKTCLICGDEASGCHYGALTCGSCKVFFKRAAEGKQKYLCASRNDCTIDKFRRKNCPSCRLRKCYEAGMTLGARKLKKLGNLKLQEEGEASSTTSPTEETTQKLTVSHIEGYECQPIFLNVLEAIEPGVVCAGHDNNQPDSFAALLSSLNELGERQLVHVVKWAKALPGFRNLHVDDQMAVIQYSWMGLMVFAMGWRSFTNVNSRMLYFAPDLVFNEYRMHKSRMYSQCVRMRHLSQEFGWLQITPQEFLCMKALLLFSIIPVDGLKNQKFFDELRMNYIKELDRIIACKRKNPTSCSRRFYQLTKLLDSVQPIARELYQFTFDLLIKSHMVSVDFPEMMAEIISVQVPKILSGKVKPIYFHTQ
Chain of F876L mutant Androgen Receptor (AR-F876L) (P10275 whole entry F877L): as the sequence (P10275 whole entry H875Y) above, with Y875H, F877L counted along it
Chain of F876L-VP16 (P10275 whole entry F877L): as the sequence (P10275 whole entry H875Y) above, with Y875H, F877L counted along it

## N#Cc1ncc(N2C(=O)C3(CCC3)N(c3ccc(OC4CCNCC4)nc3)C2=S)cc1C(F)(F)F [Cpd 43, 5-[5-oxo-8-[6-(4-piperidyloxy)-3-pyridyl]-7-thioxo-6,8-diazaspiro[3.4]octan-6-yl]-3-(trifluoromethyl)pyridine-2-carbonitrile]
[1]; agonist mode, pEC50 = −Log10(EC50 in Molar), read-out: LNCaP-AR-F876L AG pEC50 (converted)
  EC50: > 15.1 µM
[1]; maximum % stimulation (agonist response) over the tested concentration range
  LNCaP-AR-F876L AG MAX % Stim: 0.1%
[2]
  IC50: 0.197 µM
[3]; HepG2, agonist mode, relative to R1881, read-out: Agonism % Emax, AR construct H874Y
  Emax: 0%
[3]; HepG2, antagonist mode, 90 pM R1881, 48 hours, read-out: Antagonism IC50, AR construct H874Y
  IC50: 16.8 µM
[3]; HepG2, antagonist mode, maximal inhibition, read-out: Antagonism % Emax, AR construct H874Y
  Emax: 80%
[4]
  IC50: 0.015 µM
[5]; 22RV1, in the absence of 0.1 nM R1881, 5 days, read-out: IC50, agonist mode
  IC50: 492 µM
[5]; 22RV1, in the presence of 0.1 nM R1881, 5 days, read-out: IC50, antagonist mode
  IC50: 260 µM
[6]; [7]
  ASO Organ Growth (% of TP control) SVCG: 26.0 ± 17.8 % of TP control
  ASO Organ Growth (% of TP control) VP: 24.1 ± 48.1 % of TP control
[6]; all 5 organs, p≤0.05, 30 mg/kg
  Reduction in ASO versus TP control: significant reduction
